According to patent publication US11974969B2, “Artificially synthesized sphingosine derivative lipoid monomer and use of same for delivering nucleic acid” (INSTITUTE OF BASIC MEDICAL SCIENCES CHINESE ACADEMY OF …, priority 2018, dated 2024):

Test system: HEK293T cells
Assay: Flow cytometry (CFlow): delivery of FAM-labeled single-stranded PGY-sRNA-6 into HEK293T cells by different concentrations of single sphingosine derivative (Example 1)
Type: cell-based, human
Details: for delivery of single-stranded PGY-sRNA-6 into 293T cells (fluorescence shift compared to free uptake group): different concentrations: 3.75, 12.5, 37.5 μg single lipid, 0.1 nmol FAM-labeled sRNA, final 100 nM, 9 hours, flow cytometry; for Lipid delivery group (different concentrations of lipids) 3.75 μg/mL: single sphingosine derivative 3.75 μg/mL; for Lipid delivery group (different concentrations of lipids) 3.75 μg/mL / Lipid delivery group (different concentrations of lipids) 12.5 μg/mL / Lipid delivery group (different concentrations of lipids) 37.5 μg/mL: FAM-labeled PGY-ssRNA-6 100 nM, 293T cells, fluorescence shift by flow cytometry; for Lipid delivery group (different concentrations of lipids) 12.5 μg/mL: single sphingosine derivative 12.5 μg/mL; for Lipid delivery group (different concentrations of lipids) 37.5 μg/mL: single sphingosine derivative 37.5 μg/mL
Protocol: 2.1 5 μl of small RNA (Ribobio, 20 μM, as shown in Table 2) and 95 μL of DEPC (Sigma) treated water were added into a 1.5 ml EP tube and mixed well. Then a certain amount of single lipid or lipid composition in chloroform solution (as shown in Table 1) was added and fully mixed by sucking and blowing;
2.2 The system was fully mixed and was heated in a water bath at 90° C. for 15 minutes;
2.3 The system was taken out and cooled down to room temperature.
4.3 The human embryonic kidney cell line HEK293T and human monocyte THP-1 cells used in the experiment were cultured to logarithmic growth phase, and then plated into 12-well plates with a cell density of 6×10^5/1 mL medium/well. The 12-well plate (1 mL medium/well) was incubated overnight (12 h) at 37° C., followed by subsequent experiments.
4.4 The experiment groups were as follows: • 1) Naïve group: untreated cells. This group served as a blank control group. • 2) Free uptake group: […] of 5′-FAM labeled small RNA solution (storage concentration is 20 μM) was directly added. This group served as a negative control group; • 3) Lipid nucleic acid mixture treatment group: The mixture of the lipid prepared in step 2 and the 5′-FAM-labeled small RNA was added into the cells and mixed well. The final concentration of small RNA is 100 nM.
4.5 After co-incubation with cells for 6 h/9 h, the cells were washed three times with PBS. The cells were re-suspended with PBS (self-prepared). The flow cytometer Accuri® C6 instrument (purchased from BD, US) was used to detect the fluorescence intensity of the cells in the sample wells. Implementation method: the software CFlow Plus used in the flow cytometer Accuri® C6 instrument detection was opened, the instrument was washed with cleaning solution for 3 minutes, and then washed with double-distilled water for 5 minutes. The injection of blank group samples was started while setting the number of cells unlimited. The injection of Naïve group samples was stopped when the number of cells detected was 10000 events. The live cell group in the fluorescence spectrum (abscissa: FSC-A, ordinate: SSC-A) was circled as gate P1. With the number of cells set as limited, the detection was stopped when the number of cells in gate P1 reached 10000 events. The fluorescence shift value was obtained in the fluorescence spectrum (abscissa: fluorescence channel FLA-1, ordinate: SSC-A).
1) Conditions of the boiling method: to 100 μL FAM-labeled single-stranded PGY-sRNA-6 solution was added corresponding amount of lipid solution, and heated at 90° C. for 15 min;
2) Experimental conditions: the final concentration of small RNA was 100 nM. 9 hours after being added to the cells, the amount of single-stranded PGY-sRNA-6 that entered into the cells was compared by detecting the fluorescence shift using flow cytometry technology. For the detailed protocols, see “Flow cytometry technology (CFlow) determined the uptake amount of nucleic acid that is delivered into cells by lipid”. All experiments were performed in triplicates.

Compound | delivery of single-stranded PGY-sRNA-6 into 293T cells (fluorescence shift compared to free uptake group) | Lipid delivery group (different concentrations of lipids) 3.75 μg/mL | Lipid delivery group (different concentrations of lipids) 12.5 μg/mL | Lipid delivery group (different concentrations of lipids) 37.5 μg/mL
CCCCCCCCCCCCCCC[C@@H](O)[C@@H](N)CO (stereo in doubt) [So-71, (2S,3R)-2-amino-1,3-Octadecanediol] | deliver | 3.60% | 6.20% | 8.80%
CCCCCCCCCCCCCCCCC(=O)N[C@@H](CO)[C@H](O)CCCCCCCCCCCCCCC [So-1, N-heptadecanoyl-D-erythro-Dihydrosphingosine] | deliver | 1.60% | 1.50% | 1.40%
CCCCCCCCCCCCC/C=C/[C@@H](O)[C@H](CO)NC(=O)CCCCCNC(=O)CCCC[C@@H]1SC[C@@H]2NC(=O)N[C@@H]21 [So-3, N-hexanoyl-biotin-D-erythro-Sphingosine] | deliver | 1.40% | 2.10% | 3.40%
CCCCCCCCCCCCC/C=C/[C@@H](O)[C@H](CO)N(C)C [So-4, N,N-Dimethylsphingosine (d18:1)] | deliver | 1.70% | 2.20% | 0.00%
CCCCCCCCCCCCC/C=C/[C@@H](O)[C@@H](N)COP(=O)(O)O [So-5, Sphingosine-1-Phosphoric Acid] | deliver | 2.80% | 1.60% | 2.40%
CCC/C=C\CCCCCCCCCC[C@@H](O)[C@H](C)N [So-7, 14Z-1-Deoxysphingosine (d18:1)] | deliver | 1.20% | 0.20% | 4.30%
CCCCCCCCCCCCCCCC(=O)C(N)CO.Cl (stereo not shown) [So-8, 3-keto Dihydrosphingosine] | deliver | 3.60% | 4.50% | 1.90%
CCCCCCCCCCCCCCCCCC(=O)N[C@@H](CO)[C@H](O)CCCCCCCCCCCCCCC [So-9, N-octadecanoyl-D-erythro-Dihydrosphingosine] | deliver | 3.30% | 2.60% | 2.70%
CCCCCCCCCCCCCCCC(=O)N[C@@H](CO)[C@H](O)CCCCCCCCCCCCCCC [So-10, N-hexadecanoyl-D-erythro-Dihydrosphingosine] | deliver | 2.10% | 3.40% | 2.50%
CCCCCCCCCCCCCCC[C@@H](O)[C@H](CO)N(C)C [So-11, N,N-dimethyl-D-erythro-Dihydrosphingosine] | deliver | 3.60% | 7.40% | 12.70%
CCCCCCCCCCCCCCC[C@@H](O)[C@H](CO)NC(=O)CCCCCCC [So-12, N-octanoyl-D-erythro-Dihydrosphingosine] | deliver | 5.60% | 2.30% | 1.60%
CCCCCCCCCCCCC/C=C/[C@@H](O)[C@H](CO)NC(=O)CCCCCCCCCCC [So-13, N-Lauroyl-D-erythro-Sphingosine] | deliver | 3.40% | 3.20% | 5.20%
CCCCCCCCCCCCC/C=C/[C@@H](O)[C@H](CO)NC(=O)CCCCCCCCCCCCCCCCCCCCCCCCCCCCCO [So-14, ω-hydroxy-C30 Sphingosine (d18:1/30:0)] | deliver | 4.40% | 3.30% | 4.30%
CCCCCCCCCCCCCC[C@@H](O)[C@@H](N)COP(=O)(O)O [So-15, dihydro-D-erythro-Sphingosine-C17-1-phosphate] | deliver | 4.70% | 1.90% | 2.40%
CCCCCCCCCCCCC/C=C/[C@@H](O)[C@@H](N)CO [So-26, D-erythro-Sphingosine C-18] | deliver | 0.20% | 3.80% | 0.50%
CCCCCCCCCCCCCCC[C@H](O)[C@H](N)CO [So-46, C18 L-erythro Sphinganine (d18:0)] | deliver | 0.20% | 0.30% | 6.90%
CCCCCCCCCCCCC/C=C/[C@@H](O)[C@@H](N)CO[C@@H]1O[C@H](CO)[C@@H](O)[C@H](O)[C@H]1O [So-49, 1-β-D-Glucosylsphingosine (synthetic)] | deliver | 0.50% | 1.70% | 7.40%
CCCCCCCCCCCC/C=C/[C@@H](O)[C@@H](N)CO [So-53, D-erythro-Sphingosine C-17] | deliver | 0.20% | 0.30% | 6.70%
CCCCCCCCCCCCCC=CC(O)C(COP(=O)(O)OCCN)NC(C)=O (stereo not shown) [So-60, N-Acetyl-Sphingosylphosphorylethanolamine] | deliver | 7.10% | 7.10% | 6.20%
